{"source": "patent US20220205982A1", "about": "(CHILDREN'S HOSPITAL MEDICAL CENTER, priority 2019, published 2022)", "assay": "Real-time PK study of melphalan in whole blood by PS-MS/MS in patients undergoing HSCT", "assay_type": "in vivo", "settings": "human, intravenous", "procedure": "Patients undergoing HSCT were administered by intravenous infusion a low dose of melphalan (referred to as the ‘test’ dose) to first determine each patient's individualized pharmacokinetics of the drug. After that the personalized optimal full dose was calculated from these measurements and then administered. The test dose equated to 10% of the expected standard full dose for each patient. Blood samples for pharmacokinetic measurement were collected after the test dose and again after the full standard dose of melphalan. Samples were collected at baseline, 5-10 mins before drug infusion, and then 5 min, 15 min, 30 min, 45 min, 1 h, 2h, 2.5h, 4h, and 6h post-infusion. […] Plasma samples from the same blood draw were also obtained after centrifugation at 3000 rpm for 15 min and stored at −80° C. degree until analyzed by both PS-MS/MS and LC-ESI-MS/MS. […]\nPS-MS/MS was performed on an automated PS ion source (Prosolia, Inc. Indianapolis, Ind.) interfaced with a TSQ Quantum Ultra mass spectrometer (Thermo Scientific, San Jose, Calif.). […] A total of 50 scans in positive ion mode were acquired over 1 min for each m/z transition monitored. The transitions m/z 305.3 →246.2 for melphalan and the corresponding transition m/z 313.3→254.2 for the I.S. were used for quantification, while the transition m/z 305.3→194.2 served as a qualifier for melphalan confirmation. […]", "note": "Where two headings read alike, the source gives them in different places."}
{"compound": "N[C@@H](Cc1ccc(N(CCCl)CCCl)cc1)C(=O)O", "note": "[melphalan, 4-[Bis(2-chloroethyl)amino]-L-phenylalanine]", "values": [{"measurement": "AUC", "setting": "10 % of the expected standard full dose, lower test doses, PS-MS/MS, n=4, read-out: calculated mean AUC", "value": "410 ± 230", "unit": "ng·h/mL"}, {"measurement": "AUC", "setting": "full dose, PS-MS/MS method, n=5, read-out: calculated mean AUC", "value": "4900 ± 1500", "unit": "ng·h/mL"}]}
